# Laboratory results from ChEMBL document CHEMBL5154774, “Discovery of Novel Celastrol-Imidazole Derivatives with Anticancer Activity In Vitro and In Vivo” (J Med Chem, 2022).
# Active and inactive are the calls of the source. The rule behind the calls is not given here.
# Assays:
# [1] = test system: A549; test: Antiproliferative activity against human A549 cells expressing Hsp90 protein assessed as inhibition of cell growth incubated for 48 hrs by MTT assay; type: functional, cell-based; conditions: A549, 48 h
# [2] = test system: A549; test: […] of Bcl-2 protein expression in human A549 cells at 1.25 to 5 uM incubated for 12 hrs by Western blot analysis; type: functional, cell-based; conditions: dose 1.25-5 µM
# [3] = test system: A549; test: Antitumor activity against human A549 cells xenografted in BALB/c mouse lung tumor model assessed as tumor inhibition rate at 1 mg/kg, ip measured every day for 21 days by caliper method relative to control; type: functional; conditions: A549, 504 h, time 21 day
# [4] = test system: HCT-116; test: Antiproliferative activity against human HCT-116 cells assessed as inhibition of cell growth incubated for 48 hrs by MTT assay; type: functional, cell-based; conditions: HCT-116, 48 h
# [5] = test system: MDA-MB-231; test: Antiproliferative activity against human MDA-MB-231 cells assessed as inhibition of cell growth incubated for 48 hrs by MTT assay; type: functional, cell-based; conditions: MDA-MB-231, 48 h
# [6] = test system: A549; test: Antitumor activity against human A549 cells xenografted in BALB/c mouse lung tumor model assessed as tumor weight at 1 mg/kg, ip measured every day for 21 days by caliper method; type: functional; conditions: time 21 day
# [7] = test system: A549; test: Upregulation of cleaved capase-3 expression in human A549 cells at 1.25 to 5 uM incubated for 12 hrs by Western blot analysis; type: functional, cell-based; conditions: dose 1.25-5 µM
# [8] = test system: A549; test: Induction of apoptosis in human A549 cells assessed as downregulation of p-Akt level incubated for 12 hrs by Western blot analysis; type: functional, cell-based; conditions: dose 1.25-5 µM, DDE = dose-dependent effect
# [9] = target: T1, Hsp90 co-chaperone Cdc37 (Homo sapiens) (UniProt Q16543); test: Binding affinity to Cdc37 (unknown origin) at 80 uM by UV-Vis spectrophotometric analysis
# T1 sequence (whole entry): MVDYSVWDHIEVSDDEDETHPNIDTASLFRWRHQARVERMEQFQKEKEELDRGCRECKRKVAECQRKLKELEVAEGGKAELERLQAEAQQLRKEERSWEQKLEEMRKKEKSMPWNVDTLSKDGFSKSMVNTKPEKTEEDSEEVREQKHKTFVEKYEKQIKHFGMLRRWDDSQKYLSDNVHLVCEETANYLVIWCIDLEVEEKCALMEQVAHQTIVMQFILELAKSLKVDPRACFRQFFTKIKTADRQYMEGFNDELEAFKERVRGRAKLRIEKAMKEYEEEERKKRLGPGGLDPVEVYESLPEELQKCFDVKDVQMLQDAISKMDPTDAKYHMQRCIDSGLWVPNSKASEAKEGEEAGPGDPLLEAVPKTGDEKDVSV
# [10] = test system: A549; test: Induction of apoptosis in human A549 cells assessed as downregulation of Cdk4 level incubated for 12 hrs by Western blot analysis; type: functional, cell-based; conditions: dose 1.25-5 µM, DDE = dose-dependent effect
# [11] = test system: A549; test: Antiproliferative activity against human A549 cells expressing Cdc37 protein assessed as inhibition of cell growth incubated for 48 hrs by MTT assay; type: functional, cell-based; conditions: A549, 48 h
# [12] = test system: A549; test: Induction of apoptosis in human A549 cells assessed as total apoptotic cells at 0.2 uM incubated for 48 hrs Annexin V-FITC/propidium iodide staining based flow cytometry relative to control; type: functional
# [13] = test system: A549; test: Induction of apoptosis in human A549 cells assessed as total apoptotic cells at 0.4 uM incubated for 48 hrs Annexin V-FITC/propidium iodide staining based flow cytometry relative to control; type: functional
# [14] = test system: A549; test: Antiproliferative activity against human A549 cells expressing Hsp90-Cdc37 protein assessed as inhibition of cell growth incubated for 48 hrs by MTT assay; type: functional, cell-based; conditions: A549, 48 h
# [15] = test system: A549; test: Antiproliferative activity against human A549 cells assessed as inhibition of cell growth incubated for 48 hrs by MTT assay; type: functional, cell-based; conditions: A549, 48 h
# [16] = test system: A549; test: Upregulation of Bax protein expression in human A549 cells at 1.25 to 5 uM incubated for 12 hrs by Western blot analysis; type: functional, cell-based; conditions: dose 1.25-5 µM
# [17] = Stability of the compound in PBS/MeOH buffer by HPLC analysis; type: physicochemical
# [18] = test system: A549; test: Antitumor activity against human A549 cells xenografted in BALB/c mouse lung tumor model assessed as tumor inhibition rate at 0.5 mg/kg, ip measured every day for 21 days by caliper method relative to control; type: functional; conditions: A549, 504 h, time 21 day
# [19] = test system: A549; test: Induction of apoptosis in human A549 cells assessed as total apoptotic cells at 0.8 uM incubated for 48 hrs Annexin V-FITC/propidium iodide staining based flow cytometry relative to control; type: functional
# [20] = Toxicity in BALB/c mouse xenografted with human A549 cells assessed as reduction in body weight at 0.5 to 1 mg/kg, ip measured for 21 days; type: organism-based; conditions: in vivo, 504 h, dose 0.5-1 mg/kg, time 21 day
# [21] = Thiol reactivity of the compound with DTT by 1H-NMR analysis; type: physicochemical
# [22] = test system: A549; test: Inhibition of Hsp90-Cdc37 complex in human A549 cells assessed as decrease in Hsp90-Cdc37 protein level at 10 uM incubated for 6 hrs by co-immunoprecipitation assay relative to CEL; type: cell-based
# [23] = test system: A549; test: Upregulation of cleaved PARP expression in human A549 cells at 1.25 to 5 uM incubated for 12 hrs by Western blot analysis; type: functional, cell-based; conditions: dose 1.25-5 µM
# [24] = target: Heat shock protein HSP90 (Homo sapiens) (UniProt P07900+P08238); test: Binding affinity to Hsp90 (unknown origin) at 80 uM by UV-Vis spectrophotometric analysis; type: protein assay
# [25] = test system: A549; test: Induction of apoptosis in human A549 cells at 0.1 to 0.4 uM incubated for 48 hrs by Hoechst33342 staining based fluorescence microscopic analysis; type: functional, cell-based; conditions: dose 0.1-0.4 µM
# [26] = test system: A549; test: Induction of cell cycle arrest in human A549 cells assessed as accumulation of cells at G0/G1 phase measured after 24 hrs by PI staining based flow cytometry analysis; type: functional; conditions: dose 0.1-0.4 µM, DDE = dose-dependent effect
# [27] = test system: U2OS; test: Antiproliferative activity against human U2OS cells assessed as inhibition of cell growth incubated for 48 hrs by MTT assay; type: functional, cell-based
smiles,measurement,setting,value
CC1=C(O)C(=O)C=C2C1=CC=C1[C@@]2(C)CC[C@@]2(C)[C@@H]3C[C@](C)(C(=O)OCCCn4cc([N+](=O)[O-])nc4Cl)CC[C@]3(C)CC[C@]12C,IC50,[1],> 100 µM
same,Activity,[2],Active
same,inhibition in vivo at 1 mg/kg,[3],68.3%
same,IC50,[4],590 nM
same,IC50,[5],570 nM
same,Activity,[6],0.46 g
same,Activity,[7],Active
same,Activity,[8],Dde
same,Activity,[9],Active
same,Activity,[10],Dde
same,IC50,[11],> 100 µM
same,Activity,[12],9%
same,Activity,[13],11.7%
same,IC50,[14],> 100 µM
same,IC50,[15],540 nM
same,Activity,[16],Active
same,Stability,[17],Stable
same,inhibition in vivo at 0.5 mg/kg,[18],54.1%
same,Activity,[19],29.9%
same,Activity,[20],Non-Toxic
same,Activity,[21],Active
same,inhibition,[22],33.3%
same,Activity,[23],Active
same,Activity,[24],Active
same,Activity,[25],Active
same,Activity,[26],Dde
same,IC50,[27],570 nM
